According to publication PMC7577153, “Identification of Small-Molecule Inhibitors Targeting Porphyromonas gingivalis Interspecies Adherence and Determination of Their In Vitro and In Vivo Efficacies” (Antimicrobial Agents and Chemotherapy, 2020):
Read-outs that look alike come from different tables or passages of the source. Marks after values point to notes of the source that are not given here.

What was measured:
[1] = tested on: S. gordonii; test: microbicidal activity: growth curve in medium with compound; assay type: cell-based, Streptococcus gordonii; conditions: 40 μM, 24 h, OD600
Procedure: (§1) To confirm that N7, N17, and V8 function by inhibiting P. gingivalis adherence to S. gordonii rather than acting as antibacterial agents, the microbicidal activity of the compounds was determined by growing the organisms in medium containing 40 μM of each compound for 24 h. […] The structures of compounds N7, N17, and V8 are shown in Fig. 3A, B, and C, respectively. In addition, overlays of compound N17 with the NITVK motif and compound V8 with the VXXLL motif of Ag I/II are shown in Fig. 3D and E, respectively.
(§2) FIG 2 S. gordonii (A) and P. gingivalis (B) were grown for 24 h in medium containing 40 μM of each compound, and growth was quantified at various time points by measuring the OD600 for each culture. One-way analysis of variance (ANOVA) was performed to determine statistical significance.
(§3) P. gingivalis ATCC 33277 was cultured in reduced Trypticase soy broth-yeast extract (TSBY) medium comprised of 30 g/liter TSB (Difco Laboratories Inc., Detroit, MI), 5% (wt/vol) yeast extract supplemented with 5 mg/liter hemin and 1 mg/liter menadione under anaerobic conditions (10% CO2, 10% H2, and 80% N2) at 37°C for 48 h. Reduced TSBY medium was prepared by incubating the medium under anaerobic conditions at 37°C for 24 h prior to bacterial inoculation. Streptococcus gordonii DL1 was grown in brain heart infusion (BHI) (Difco Laboratories Inc.) broth supplemented with 5% (wt/vol) yeast extract under anaerobic conditions as described above.

[2] = tested on: P. gingivalis; test: as above; assay type: cell-based, Porphyromonas gingivalis; conditions: 40 μM, 24 h, OD600
Procedure: as §1, §2, §3

[3] = tested on: HL60 cells; test: LDH release (CytoTox 96); assay type: cell-based, human; conditions: 18 h
Procedure: (§4) The CytoTox 96 nonradioactive cytotoxicity assay (Promega Inc. Madison, WI) was used to determine extracellular lactate dehydrogenase activity (LDH) in TIGK, J774A.1, and HL60 cell cultures treated with the test compounds. […] After an 18-h incubation, the cell supernatant was collected by centrifugation at 250 × g for 4 min, and 50 μl of cell free supernatant was transferred into wells of a fresh 96-well microtiter plate. Subsequently, 50 μl of the LDH substrate was added in each well and incubated at room temperature for 30 min. Reactions were stopped by adding 50 μl of the stop solution according to the manufacturer’s protocol, and the endpoint was measured by determining optical density at 490 nm. Cells treated with culture medium containing 0.1% DMSO or with medium alone served as negative controls, and cells incubated with 15-μl lysis buffer (supplied by manufacturer) for 1 h served as a positive control for lysis. All samples were tested in triplicate.

[4] = tested on: TIGK cells; test: LDH release (CytoTox 96); assay type: cell-based, human; conditions: 18 h
Procedure: as §4

[5] = tested on: J774A.1 cells; test: LDH release (CytoTox 96); assay type: cell-based, mouse; conditions: 18 h
Procedure: as §4

[6] = tested on: HL60 cells; test: total cellular ATP (CellTiterGlo); assay type: cell-based, human; conditions: HL-60 cells, 5, 20 and 40 μM, 18 h
Procedure: (§5) To determine the metabolic activity of cells, the total cellular ATP level was measured in cell culture samples using the CellTiterGlo reagent (Promega Inc. Madison, WI). Cells were grown as described above in the presence of the desired concentration of compounds. The spent medium was decanted, and cells were washed three times with PBS and subsequently incubated with 100 μl of the CellTiterGlo substrate. To facilitate the reaction, plates were incubated at room temperature for 2 min with shaking and for an additional 10 min without shaking. Total light production was measured using a Victor 3 multilabel plate reader (PerkinElmer).

[7] = tested on: TIGK cells; test: total cellular ATP (CellTiterGlo); assay type: cell-based, human; conditions: 18 h, versus negative controls
Procedure: as §5

[8] = tested on: J774A.1 cells; test: total cellular ATP (CellTiterGlo); assay type: cell-based, mouse; conditions: J774A.1 cells, 5, 20 and 40 μM, 18 h
Procedure: as §5

[9] = tested on: TIGK cells; conditions: 18 h;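 note: flow cytometry of cells stained with PE annexin V plus Sytox green, with untreated or 0.1% DMSO-exposed cells as negative controls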
Procedure: (§6) The mouse macrophage cell line J774A.1 was grown in Dulbecco’s modified Eagle medium (DMEM) (Thermo Fisher Scientific, Waltham, MA) supplemented with 4.5 g/ml glucose, 10% fetal bovine serum (FBS), and 100 U/ml penicillin-streptomycin (Sigma-Aldrich, St. Louis, MO). HL60 (ATCC CCL240) cells were obtained from the American Type Culture Collection and cultured in Iscove’s modified Dulbecco’s medium (Sigma-Aldrich) supplemented with 20% fetal bovine serum (FBS) (Sigma-Aldrich).
(§7) The apoptotic activity of the compounds was determined using the phycoerythrin (PE) annexin V/dead cell apoptosis kit with Sytox green for flow cytometry (Invitrogen, Carlsbad, CA). Cells were grown in 12-well flat-bottom microtiter plates at an initial density 2 × 10^5 cells in 1.5-ml medium per well for 24 h. Following the incubation period, spent medium was replaced with fresh medium containing the desired concentration of the test compound and incubated for another 18 h. After trypsinization, cells were harvested by centrifuging at 250 × g for 4 min, and the cell pellet was suspended in 100 μl of binding buffer supplemented with 1 μl Sytox and 5 μl annexin V, followed by incubation at 37°C for 15 min. Samples were then diluted by adding 400-μl binding buffer, and flow cytometry was performed using a FACScalibur flow cytometer (Becton, Dickinson, Franklin Lakes, NJ), measuring the fluorescence emissions at 530 nm and 575 nm.

[10] = tested on: J774A.1 cells; conditions: 18 h
Procedure: as §6, §7

SMILES	growth curve versus medium alone or 0.1% DMSO [1]	growth curve versus medium alone or 0.1% DMSO [2]	cellular ATP levels [7]	Early apoptosis (%) ([9]; 5 μM)	Late apoptosis/necrosis (%) ([9]; 5 μM)	Live cells (%) ([9]; 5 μM)	Early apoptosis (%) ([9]; 20 μM)	Late apoptosis/necrosis (%) ([9]; 20 μM)	Live cells (%) ([9]; 20 μM)	Early apoptosis (%) ([9]; 40 μM)	Late apoptosis/necrosis (%) ([9]; 40 μM)	Live cells (%) ([9]; 40 μM)	Early apoptosis (%) ([10]; 5 μM)	Late apoptosis/necrosis (%) ([10]; 5 μM)	Live cells (%) ([10]; 5 μM)	Early apoptosis (%) ([10]; 20 μM)	Late apoptosis/necrosis (%) ([10]; 20 μM)	Live cells (%) ([10]; 20 μM)	Late apoptosis/necrosis (%) ([10]; 40 μM)	Live cells (%) ([10]; 40 μM)	other results
O=C(Nc1ccccc1O)c1cccc(N2C(=O)c3ccc(C(=O)Nc4ccccc4O)cc3C2=O)c1 [N17, N-(2-hydroxyphenyl)-2-{3-[(2-hydroxyphenyl)carbamoyl]phenyl}-1,3-dioxo-2,3-dihydro-1H-isoindole-5-carboxamide]	not significantly different	not significantly different	did not significantly differ from the negative controls	2.9	4.2	90.7	2.4	3.6%	92.4	1.5	5.1%	91.6	1.0	6.1	87.8	1.0	6.9	85.3	6.6	87.3	LDH release ([3]; HL-60 cells, 5, 20 and 40 μM): no significant effect; LDH release ([4]; versus negative controls): did not significantly differ from the negative controls; LDH release ([5]; J774A.1 cells, 5, 20 and 40 μM): no significant effect; ATP levels [6]: no significant effect; ATP levels [8]: no significant effect; Early apoptosis (%) ([10]; 40 μM): 1.2%
Cl.N=c1n(CCN2CCCCC2)c2ccccc2n1CC(O)COc1ccc(Cl)cc1 (stereo not drawn) [N7, 1-(4-chlorophenoxy)-3-{2-imino-3-[2-(piperidin-1-yl)ethyl]-2,3-dihydro-1H-1,3-benzodiazol-1-yl}propan-2-ol hydrochloride]	not significantly different	not significantly different	significantly reduced cellular ATP levels	2.4	8.3	86.8	1.0	14.9* %	74.5	5.9	40.7* %	48.3	2.5	5.5	83.9	16.9	46.6	33.4	38.0	36.2	LDH release ([3]; HL-60 cells, 20 μM and 40 μM): significant increases; LDH release ([4]; 40 μM): significant increase in LDH release; LDH release ([5]; J774A.1 cells, 20 μM and 40 μM): significant increases; Early apoptosis (%) ([10]; 40 μM): 24.9%
Cc1cc([C@H]2CCCN(CC(=O)NC3(C#N)CCCC3)C2)n[nH]1 [V8, N-(1-cyanocyclopentyl)-2-[3-(5-methyl-1H-pyrazol-3-yl)piperidin-1-yl] acetamide]	not significantly different	not significantly different	did not significantly differ from the negative controls	3.1	4.2	91.6	2.1	3.5%	92.8	2.4	3.4%	92.8	1.1	8.3	85.1	0.9	8.0	83.4	9.1	84.3	LDH release ([3]; HL-60 cells, 5, 20 and 40 μM): no significant effect; LDH release ([4]; versus negative controls): did not significantly differ from the negative controls; LDH release ([5]; J774A.1 cells, 5, 20 and 40 μM): no significant effect; ATP levels [6]: no significant effect; ATP levels [8]: no significant effect
